Patent US20240228482A1, “COMPOUNDS, COMPOSITIONS AND METHODS OF TREATING CANCER” (HOTSPOT THERAPEUTICS, INC., priority 2021, published 2024)

Biological target: T1, CBL-B (Homo sapiens, UniProt Q13191)
T1 construct: GST
Assay: CBL-B TR-FRET IC50 screening (E1/E2 ubiquitination, Biotin-Ubiquitin, Anti GST-Tb donor / Streptavidin-d2 acceptor)
Format: biochemical
Conditions: second part of Table 2 (head 'Patent Cmpd No / Updated Activity'); same CBL-B TR-FRET IC50 bins A-F; read-out: Updated Activity

T1 sequence (Q13191 whole entry): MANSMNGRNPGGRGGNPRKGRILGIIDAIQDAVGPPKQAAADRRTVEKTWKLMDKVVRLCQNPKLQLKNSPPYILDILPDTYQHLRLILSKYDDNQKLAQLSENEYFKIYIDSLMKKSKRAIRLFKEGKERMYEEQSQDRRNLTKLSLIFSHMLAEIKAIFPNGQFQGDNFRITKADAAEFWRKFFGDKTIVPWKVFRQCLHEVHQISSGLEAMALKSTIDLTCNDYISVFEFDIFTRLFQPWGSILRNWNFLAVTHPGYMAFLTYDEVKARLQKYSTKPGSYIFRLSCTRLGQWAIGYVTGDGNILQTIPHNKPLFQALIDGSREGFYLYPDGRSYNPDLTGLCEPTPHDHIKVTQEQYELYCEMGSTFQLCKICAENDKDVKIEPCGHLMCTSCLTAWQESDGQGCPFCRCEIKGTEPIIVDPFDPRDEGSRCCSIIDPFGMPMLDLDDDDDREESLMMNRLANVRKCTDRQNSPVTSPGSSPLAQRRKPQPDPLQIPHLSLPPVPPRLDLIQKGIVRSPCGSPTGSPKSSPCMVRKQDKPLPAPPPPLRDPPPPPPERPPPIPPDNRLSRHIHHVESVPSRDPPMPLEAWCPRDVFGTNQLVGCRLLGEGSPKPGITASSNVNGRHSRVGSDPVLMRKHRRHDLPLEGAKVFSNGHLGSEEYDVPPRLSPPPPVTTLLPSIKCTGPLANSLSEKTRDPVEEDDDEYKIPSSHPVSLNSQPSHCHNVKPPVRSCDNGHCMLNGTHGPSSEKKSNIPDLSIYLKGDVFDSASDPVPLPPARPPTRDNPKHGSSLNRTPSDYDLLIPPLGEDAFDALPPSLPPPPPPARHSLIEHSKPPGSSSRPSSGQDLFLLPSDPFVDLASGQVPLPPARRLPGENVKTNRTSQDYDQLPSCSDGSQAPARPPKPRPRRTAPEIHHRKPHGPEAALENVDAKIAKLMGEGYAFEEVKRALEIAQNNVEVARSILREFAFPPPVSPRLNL

SMILES: CN1C(=O)CCN1Cc1cc(C(F)(F)F)c2cn(-c3cccc([C@H](c4nncn4C)C4CCC4)c3)c(=O)n2c1 [Compound 498]
- IC50: < 0.1 µM

SMILES: Cn1cnnc1CC1(c2cccc(-n3cc4c(C(F)(F)F)cc(CN5CCC(OCCN)CC5)cn4c3=O)c2)COC1 [Compound 499]
- IC50: < 0.1 µM

SMILES: COCCn1ccnc1-c1cc(C(F)(F)F)c2cn(-c3cccc([C@H](c4nncn4C)C4CCC4)c3)c(=O)n2c1 [Compound 502]
- IC50: < 0.1 µM

SMILES: Cn1cnnc1[C@@H](c1cccc(-n2cc3c(C(F)(F)F)cc(CN4CCC5(CC4)CC5)cn3c2=O)c1)C1CCC1 [Compound 503]
- IC50: < 0.1 µM

SMILES: [2H]C([2H])(c1cc(C(F)(F)F)c2cn(-c3cccc([C@H](c4nncn4C)C4CCC4)c3)c(=O)n2c1)N1CC2(CC2)C1 [Compound 504]
- IC50: < 0.1 µM

SMILES: [2H]C([2H])(c1cc(C(F)(F)F)c2cn(-c3cccc([C@H](c4nncn4C)C4CCC4)c3)c(=O)n2c1)N1CCC2(CC2)C1 [Compound 505]
- IC50: < 0.1 µM

SMILES: C[C@H]1CCCN([C@H](C)c2cc(C(F)(F)F)c3cn(-c4cccc(C5(c6nncn6C)CCC5)c4)c(=O)n3c2)C1 [Compound 506_P1]
- IC50: < 0.1 µM

SMILES: C[C@H]1CCCN([C@@H](C)c2cc(C(F)(F)F)c3cn(-c4cccc(C5(c6nncn6C)CCC5)c4)c(=O)n3c2)C1 [Compound 506_P2]
- IC50: < 0.1 µM

SMILES: COC[C@@H]1CCN1Cc1cc(C(F)(F)F)c2cn(-c3cccc([C@H](c4nncn4C)C4CCC4)c3)c(=O)n2c1 [Compound 507]
- IC50: < 0.1 µM

SMILES: CN(Cc1cc(C(F)(F)F)c2cn(-c3cccc([C@H](c4nncn4C)C4CCC4)c3)c(=O)n2c1)S(C)(=O)=O [Compound 520]
- IC50: < 0.1 µM

SMILES: COC(=O)CN(C)Cc1cc(C(F)(F)F)c2cn(-c3cccc([C@H](c4nncn4C)C4CCC4)c3)c(=O)n2c1 [Compound 521]
- IC50: < 0.1 µM

SMILES: CN(CC(=O)O)Cc1cc(C(F)(F)F)c2cn(-c3cccc([C@H](c4nncn4C)C4CCC4)c3)c(=O)n2c1 [Compound 522]
- IC50: < 0.1 µM

SMILES: CN1CCC2(CCN(Cc3cc(C(F)(F)F)c4cn(-c5cccc([C@H](c6nncn6C)C6CCC6)c5)c(=O)n4c3)CC2)C1=O [Compound 523]
- IC50: < 0.1 µM

SMILES: Cn1cnnc1[C@@H](c1cccc(-n2cc3c(C(F)(F)F)cc(CN4CCC5(CCO5)CC4)cn3c2=O)c1)C1CCC1 [Compound 524]
- IC50: < 0.1 µM

SMILES: Cn1cnnc1[C@@H](c1cccc(-n2cc3c(C(F)(F)F)cc(CN4CCC5(CC4)COC5)cn3c2=O)c1)C1CCC1 [Compound 525]
- IC50: < 0.1 µM

SMILES: [2H]C([2H])(c1cc(C(F)(F)F)c2cn(-c3cccc([C@H](c4nncn4C)C4CCC4)c3)c(=O)n2c1)N1CCC(C)(F)CC1 [Compound 526]
- IC50: < 0.1 µM

SMILES: [2H]C([2H])(c1cc(C(F)(F)F)c2cn(-c3cccc([C@H](c4nncn4C)C4CCC4)c3)c(=O)n2c1)N1CCO[C@H](C)C1 [Compound 527]
- IC50: < 0.1 µM

SMILES: Cn1cnnc1[C@@H](c1cccc(-n2cc3c(C(F)(F)F)cc(CN4CCC5CC54)cn3c2=O)c1)C1CCC1 (stereo partly shown) [Compound 528]
- IC50: < 0.1 µM

SMILES: Cn1cnnc1[C@H](c1cc(-c2cnn[nH]2)cc(-n2cc3c(C(F)(F)F)cccn3c2=O)c1)C1CCC1 [Compound 535]
- IC50: 0.301 to 1 µM

SMILES: Cn1cnnc1[C@@H](c1cc(-c2cnn[nH]2)cc(-n2cc3c(C(F)(F)F)cccn3c2=O)c1)C1CCC1 [Compound 536]
- IC50: > 10 µM

SMILES: Cn1cnnc1[C@@H](c1cccc(-n2cc3c(C(F)(F)F)cc(CN4CCCS4(=O)=O)cn3c2=O)c1)C1CCC1 [Compound 541]
- IC50: < 0.1 µM

SMILES: Cn1cnnc1[C@@H](c1cccc(-n2cc3c(C(F)(F)F)cc(CN4CCNS4(=O)=O)cn3c2=O)c1)C1CCC1 [Compound 542]
- IC50: < 0.1 µM

SMILES: Cn1cnnc1[C@@H](c1cccc(-n2cc3c(C(F)(F)F)cc(CN4CCCCS4(=O)=O)cn3c2=O)c1)C1CCC1 [Compound 543]
- IC50: < 0.1 µM

SMILES: Cn1cnnc1[C@@H](c1cccc(-n2cc3c(C(F)(F)F)cc(CN4CCCNS4(=O)=O)cn3c2=O)c1)C1CCC1 [Compound 544]
- IC50: < 0.1 µM

SMILES: Cn1cnnc1[C@@H](c1cccc(-n2cc3c(C(F)(F)F)cc(CN4CCC5(CCOC5=O)CC4)cn3c2=O)c1)C1CCC1 [Compound 545]
- IC50: < 0.1 µM

SMILES: [2H]C([2H])(c1cc(C(F)(F)F)c2cn(-c3cccc([C@H](c4nncn4C)C4COC4)c3)c(=O)n2c1)N1CCC[C@H](C)C1 [Compound 546]
- IC50: < 0.1 µM

SMILES: C[C@@H]1CCN1Cc1cc(C(F)(F)F)c2cn(-c3cccc([C@H](c4nncn4C)C4CCC4)c3)c(=O)n2c1 [Compound 547]
- IC50: < 0.1 µM

SMILES: COC[C@H]1CCN1Cc1cc(C(F)(F)F)c2cn(-c3cccc([C@H](c4nncn4C)C4CCC4)c3)c(=O)n2c1 [Compound 548]
- IC50: < 0.1 µM

SMILES: Cn1cnnc1[C@@H](c1cccc(-n2cc3c(C(F)(F)F)cc(CN4CC(C#N)C4)cn3c2=O)c1)C1CCC1 [Compound 549]
- IC50: < 0.1 µM

SMILES: C[C@H]1CCCN(Cc2cc(C(F)(F)F)c3cn(-c4csc([C@@H](c5nncn5C)C5CCC5)c4)c(=O)n3c2)C1 [Compound 550_P1]
- IC50: < 0.1 µM

SMILES: C[C@H]1CCCN(Cc2cc(C(F)(F)F)c3cn(-c4csc([C@H](c5nncn5C)C5CCC5)c4)c(=O)n3c2)C1 [Compound 550_P2]
- IC50: < 0.1 µM

SMILES: Cn1cnnc1[C@@H](c1cccc(-n2cc3c(C(F)(F)F)cc(CN4NC(=O)CC45COC5)cn3c2=O)c1)C1CCC1 [Compound 561]
- IC50: < 0.1 µM

SMILES: CN1CCCN(Cc2cc(C(F)(F)F)c3cn(-c4cccc([C@H](c5nncn5C)C5CCC5)c4)c(=O)n3c2)S1(=O)=O [Compound 562]
- IC50: < 0.1 µM

SMILES: C[C@H]1CCC[N+]([O-])(Cc2cc(C(F)(F)F)c3cn(-c4cccc([C@H](c5nncn5C)C5CCC5)c4)c(=O)n3c2)C1 (stereo partly shown) [Compound 563]
- IC50: < 0.1 µM

SMILES: Cn1cnnc1[C@@H](c1cccc(-n2cc3c(C(F)(F)F)cc(CN4CC(C)(C#N)C4)cn3c2=O)c1)C1CCC1 [Compound 564]
- IC50: < 0.1 µM

SMILES: [2H]C([2H])(c1cc(C(F)(F)F)c2cn(-c3cccc([C@@H](c4nncn4C)C4COC4)c3)c(=O)n2c1)N1CCC[C@H](C)C1 [Compound 565_P1]
- IC50: > 10 µM

SMILES: C[C@H]1CCN1Cc1cc(C(F)(F)F)c2cn(-c3cccc([C@H](c4nncn4C)C4CCC4)c3)c(=O)n2c1 [Compound 565_P2]
- IC50: < 0.1 µM

SMILES: C[C@H]1CCCN(Cc2cc(C(F)(F)F)c3cn(-c4cccc([C@@H](c5n[nH]cc5C#N)C5CCC5)c4)c(=O)n3c2)C1 [Compound 566]
- IC50: > 10 µM

SMILES: C[C@H]1CCCN(Cc2cc(C(F)(F)F)c3cn(-c4cccc([C@H](c5n[nH]cc5C#N)C5CCC5)c4)c(=O)n3c2)C1 [Compound 567]
- IC50: < 0.1 µM

SMILES: Cn1cnnc1[C@@H](c1cccc(-n2cc3c(C(F)(F)F)cc(CN4CCC[C@](C)(O)C4)cn3c2=O)c1)C1CCC1 [Compound 568]
- IC50: < 0.1 µM

SMILES: Cn1cnnc1[C@@H](c1cccc(-n2cc3c(C(F)(F)F)cc(CN4CCN(S(C)(=O)=O)CC4)cn3c2=O)c1)C1CCC1 [Compound 572]
- IC50: < 0.1 µM

SMILES: CCS(=O)(=O)N(C)Cc1cc(C(F)(F)F)c2cn(-c3cccc([C@H](c4nncn4C)C4CCC4)c3)c(=O)n2c1 [Compound 590]
- IC50: < 0.1 µM

SMILES: CCN(Cc1cc(C(F)(F)F)c2cn(-c3cccc([C@H](c4nncn4C)C4CCC4)c3)c(=O)n2c1)S(C)(=O)=O [Compound 591]
- IC50: < 0.1 µM

SMILES: CCN(Cc1cc(C(F)(F)F)c2cn(-c3cccc([C@H](c4nncn4C)C4CCC4)c3)c(=O)n2c1)S(=O)(=O)CC [Compound 592]
- IC50: < 0.1 µM

SMILES: COCCN(Cc1cc(C(F)(F)F)c2cn(-c3cccc([C@H](c4nncn4C)C4CCC4)c3)c(=O)n2c1)S(C)(=O)=O [Compound 593]
- IC50: < 0.1 µM

SMILES: COCCS(=O)(=O)N(C)Cc1cc(C(F)(F)F)c2cn(-c3cccc([C@H](c4nncn4C)C4CCC4)c3)c(=O)n2c1 [Compound 594]
- IC50: < 0.1 µM

SMILES: CN(CCC(=O)O)Cc1cc(C(F)(F)F)c2cn(-c3cccc([C@H](c4nncn4C)C4CCC4)c3)c(=O)n2c1 [Compound 595]
- IC50: < 0.1 µM

SMILES: COC(=O)CCN(C)Cc1cc(C(F)(F)F)c2cn(-c3cccc([C@H](c4nncn4C)C4CCC4)c3)c(=O)n2c1 [Compound 596]
- IC50: < 0.1 µM

SMILES: [2H]C([2H])(c1cc(C(F)(F)F)c2cn(-c3cccc([C@H](c4nncn4C)C4CCC4)c3)c(=O)n2c1)N1CCC[C@H](C(F)(F)F)C1 [Compound 597_P1]
- IC50: 3 to 10 µM

SMILES: [2H]C([2H])(c1cc(C(F)(F)F)c2cn(-c3cccc([C@H](c4nncn4C)C4CCC4)c3)c(=O)n2c1)N1CCC[C@@H](C(F)(F)F)C1 [Compound 597_P2]
- IC50: < 0.1 µM

SMILES: CN1CCN(Cc2cc(C(F)(F)F)c3cn(-c4cccc([C@H](c5nncn5C)C5CCC5)c4)c(=O)n3c2)S1(=O)=O [Compound 608]
- IC50: < 0.1 µM

SMILES: Cn1cnnc1[C@@H](c1cccc(-n2cc3c(C(F)(F)F)cc(CN4CCC5(CCNC5=O)CC4)cn3c2=O)c1)C1CCC1 [Compound 609]
- IC50: < 0.1 µM

SMILES: C[C@H](c1cc(C(F)(F)F)c2cn(-c3cccc([C@H](c4nncn4C)C4CCC4)c3)c(=O)n2c1)N(C)Cc1cncs1 [Compound 610_P1]
- IC50: < 0.1 µM

SMILES: C[C@@H](c1cc(C(F)(F)F)c2cn(-c3cccc([C@H](c4nncn4C)C4CCC4)c3)c(=O)n2c1)N(C)Cc1cncs1 [Compound 610_P2]
- IC50: < 0.1 µM

SMILES: COCCn1ccnc1-c1cc(C(F)(F)F)c2cn(-c3cccc(C4(c5nncn5C)CCC4)c3)c(=O)n2c1 [Compound 611]
- IC50: 0.1 to 0.3 µM

SMILES: C[C@@H]1CN(Cc2cc(C(F)(F)F)c3cn(-c4cccc([C@@H](c5nncn5C)C5CC5)c4)c(=O)n3c2)CCO1 [Compound 612_P1]
- IC50: > 10 µM

SMILES: C[C@@H]1CN(Cc2cc(C(F)(F)F)c3cn(-c4cccc([C@H](c5nncn5C)C5CC5)c4)c(=O)n3c2)CCO1 [Compound 612_P2]
- IC50: < 0.1 µM

SMILES: CN1CCC2(CN(Cc3cc(C(F)(F)F)c4cn(-c5cccc([C@H](c6nncn6C)C6CCC6)c5)c(=O)n4c3)C2)C1=O [Compound 622]
- IC50: < 0.1 µM

SMILES: C[C@H]1CCCN(Cc2cc(C(F)(F)F)c3cn(-c4cccc(C5(c6nncs6)CC(C)(C)C5)c4)c(=O)n3c2)C1 [Compound 624]
- IC50: 0.301 to 1 µM

SMILES: Cn1cnnc1[C@@H](c1cccc(-n2cc3c(C(F)(F)F)cc(CN4CCCC(n5cnnc5)C4)cn3c2=O)c1)C1CCC1 (stereo partly shown) [Compound 625]
- IC50: < 0.1 µM

SMILES: C[C@H]1CCCN(Cc2cc(C(F)(F)F)c3cn(-c4cccc(C5(c6nncs6)CCC5)c4)c(=O)n3c2)C1 [Compound 626]
- IC50: < 0.1 µM
